# Key:
# brain [1] = assay: Matured TTM-001 and TTM-002 variants, NGS enrichment in mouse brain; assay type: in vivo, mice; details: mouse brain; relative to AAV9 control
# [2] = tested on: brains, heart, liver, muscle, and DRG of the NHPs; assay: Maturation of TTM-001 and TTM-002 capsids, NGS enrichment in NHP tissues; assay type: in vivo; details: relative to AAV9 control
# Procedure, shortened: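 Variants carry mutations within and flanking the loop IV peptide insert: positions 450–466 were triplet-randomized, while positions 449–466 received low-frequency point mutations. The combined pool went into two NHPs, and each peptide was scored by NGS enrichment ratio against AAV9.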
# brain [3] = assay: Maturation of TTM-002 capsid, NGS enrichment in brain of CD-1 Outbred mice; assay type: in vivo; details: NGS fold-enrichment in the brain of CD-1 Outbred mice; intravenous, 1.0×10^12 VG/dose, 14 days; RNA; relative to non-matured TTM-002 control
# From the text: This Example describes maturation of the TTM-001 (SEQ ID NO: 981 (amino acid) and 983 (DNA), comprising SEQ ID NO: 941) and TTM-002 (SEQ ID NO: 982 (amino acid) and 984 (DNA), comprising SEQ ID NO: 2) capsid variants to further enhance their transduction and biodistribution in the central nervous system and evolve the AAV capsid variants to provide further cross-species compatibility. Two approaches were used to mature the TTM-001 and TTM-002 capsid sequences in order to randomize and mutate within and around the peptide insert comprised within loop IV of the capsid variant. […] In the first maturation approach, sets of three contiguous amino acids were randomized across the mutagenesis region in the TTM-001 and TTM-002 sequences, which spanned from position 450 to position 466, numbered according to SEQ ID NO: 981 and 982. In the second maturation approach, mutagenic primers were used to introduce point mutations at a low frequency, scattered across the mutagenesis region in the TTM-001 and TTM-002 sequences ranging from position 449 to position 466, numbered according to SEQ ID NO: 981 and 982. AAV capsid variants arising from each maturation approach for TTM-001 were pooled together and AAV capsid variants arising from each maturation approach for TTM-002 were also pooled together, for subsequent testing and characterization in mice.
# The library of pooled matured AAV capsid variants generated from TTM-001 or library of pooled matured AAV capsid variants generated from the TTM-002 matured AAV capsid variant each were intravenously injected into the tail vein of three female CD-1 Outbred mice (Charles River) at a dose of 1.0×10^12 VG/dose. After 14-days in life, the brains of the mice were isolated and RNA was extracted. Following RNA recovery and RT-PCR amplification, a systematic NGS enrichment analysis was performed to calculate the fold enrichment ratio relative to the corresponding TTM-001 or TTM-002 control, and the peptides comprised within the variants were identified. The data for the TTM-001 matured capsid variants is provided in Table 13 and the data for the TTM-002 matured capsid variants is provided in Table 14.
Sequence,Fold enrichment over TTM-002 (brain [3]),other results
KAEIGHDSPHKSGQNQQT,2.17,"Fold Enrichment relative to AAV9, Brain (Mouse) (brain [1]): 27.173 fold; Fold Enrichment relative to AAV9, Brain (NHP) ([2]; NGS fold-enrichment of matured AAV capsid variants, NHP brain, RNA): 63.249 fold; Fold Enrichment relative to AAV9, DRG (NHP) ([2]; NHP DRG): 0.000 fold; Fold Enrichment relative to AAV9, Heart (NHP) ([2]; NHP heart): 0.000 fold; Fold Enrichment relative to AAV9, Liver DNA (NHP) ([2]; NHP liver, DNA): 0.024 fold; Fold Enrichment relative to AAV9, Liver RNA (NHP) ([2]; NHP liver, RNA): 0.060 fold; Fold Enrichment relative to AAV9, Muscle (NHP) ([2]; NHP muscle): 0.000 fold"
KIEYGHDSPHKSGQNQQT,2.41,–
KTGNGHDSPHKSGQYQQT,2.03,–
KTINGHDSPHVIDQNQQT (KTINGHDSPHVTDQNQQT),5.20,–
KADMGHDSPHKSGQNQQT,2.48,–
KMEAGHDSPHKSGQNQQT,2.12,–
KIEGGHDSPHKSGQNQQT,2.00,–
KTPWEHDSPHKSGQNQQT,2.05,–
KANNGQDSPHKSGQNQQT,2.67,–

# From patent US20260250318A1, “COMPOSITIONS AND METHODS FOR CROSSING THE BLOOD BRAIN BARRIER” (VOYAGER THERAPEUTICS, INC., priority 2022, published 2026)
